In patent US9211296B2, “Therapeutic compounds for blocking DNA synthesis of POX viruses” (priority 2007, dated 2015):
Entries after “also recorded” stand apart in the source; their conditions may differ. Like-named read-outs stand apart in the source and are kept apart here.

What was measured:
[1] = target: vaccinia virus DNA synthesis (viral DNA polymerase and its associated factors) (Vaccinia virus, UniProt P06856); assay type: biochemical
[2] = Solubility in cell growth medium by light scattering; details: concentrations of the activity assays
Method: These 16 compounds were tested for cell protection and cytotoxicity over longer times (48 h and 72 h). […] The solubility of the 16 compounds was verified in cell growth medium over the range of concentrations used in the activity assays.

vaccinia virus WR [3] = test: microbe, parasite or virus in culture; assay type: cell-based; details: for EC50: Orthopoxvirus vaccinia
vaccinia virus WR [4] = assay type: cell-based
vaccinia virus WR [5] = test: microbe, parasite or virus in culture; assay type: cell-based; details: Orthopoxvirus vaccinia
BS-C-1 cells = test: WST-1 cytotoxicity assay; details: for tox 20 h TC50 / tox 72 h TC50 / tox 120 h TC50: Table 6; for CC50: Table 4
WST-1 cytotoxicity assay = details: African green monkey, BS-C-1 cells
vaccinia virus [6] = test: microbe, parasite or virus in culture; assay type: cell-based; details: Orthopoxvirus vaccinia; for inhibition at 100 µM: BSC-1, 1 h, read-out: Inhibition of plaques
[7] = target: vaccinia triad (A20, D4, E9) (Vaccinia virus (strain Western Reserve) (VACV) (Vaccinia virus (strain WR)), UniProt P06856); assay type: biochemical
[8] = target: vaccinia E9 polymerase (Vaccinia virus (strain Western Reserve) (VACV) (Vaccinia virus (strain WR)), UniProt P06856); assay type: biochemical
in vitro = details: African green monkey
[9] = target: triad (A20, D4, E9) (Vaccinia virus (strain Western Reserve) (VACV) (Vaccinia virus (strain WR)), UniProt P06856); assay type: biochemical
BSC-1 cells [10] = details: 100 μM
vaccinia virus [11] = assay type: cell-based
vaccinia virus [12] = test: microbe, parasite or virus in culture; details: Orthopoxvirus vaccinia, BSC-1, 16 h, read-out: Plaque IC50
[13] = aCella-TOX GAPDH release cytotoxicity assay (viridicatumtoxin study); details: African green monkey, BSC-1 cells
[14] = tested on: vaccinia late gene F9 mRNA; assay type: cell-based, vaccinia virus
[15] = tested on: vaccinia early gene E3 mRNA; assay type: cell-based, vaccinia virus
BSC-1 cells [16] = test: Cell viability at plaque IC50, MTT assay; details: at plaque IC50 (1.6 μM), 16 h
Method: (§1) The cell viability at the plaque IC50 value was performed using two independent methods, cell counting and MTT assay. For the cell counting method, cells were incubated overnight at 37° C. to sub-confluency in 48-well plates. The compounds dissolved in DMSO, were further diluted in media to a final concentration required to achieve the plaque IC50 value. The cells were incubated with the compounds for 24 hrs. The media was removed, the cells trypsinized and stained with tryphan blue, and counted. The MTT assay was also used to confirm cell viability at the plaque IC50. Cells were seeded at 1.5×10^4 cells/well in a 96-well plate and incubated overnight at 37° C. at 5% CO2. […] Each well received 20 μL of the MTT solution (5 mg MTT/mL PBS) and the plate was rocked for 5 min. The plates were incubated for an additional 5 h to metabolize MTT, after which the media was removed, and the plates were air dried. To resuspend the formazan, the end product of the MTT assay, 200 μL of DMSO was added to each well and the plates were rocked for 5-10 min. Absorbance was read at 560 nm.

[17] = target: vaccinia E9 DNA polymerase (Vaccinia virus (strain Western Reserve) (VACV) (Vaccinia virus (strain WR)), UniProt P06856); test: biochemical
BSC-1 cells [18] = test: aCella-TOX GAPDH release cytotoxicity assay (viridicatumtoxin study); details: cells exposed to 200 μM
[19] = tested on: vaccinia early E3 protein; assay type: cell-based, vaccinia virus
vaccinia late L1 protein = assay type: cell-based, vaccinia virus
BSC-1 cells [20] = test: Cell viability at plaque IC50, cell counting; details: at plaque IC50 (1.6 μM), 24 hrs
Method: as §1

vaccinia virus [21] = details: African green monkey
[22] = read-out: DNA Synthesis Inhibition IC50
[23] = 20 h, read-out: Cell Protection 20 h EC50
[24] = BSC-1, 20 h, read-out: cell prot EC50
[25] = 20 h, read-out: Plaque Reduction 20 h EC50
[26] = BSC-1, 20 h, read-out: plaque red EC50
[27] = read-out: Cytotoxicity 20 h CC50, 20 h
[28] = read-out: Cytotoxicity 120 h CC50, 120 h

Cc1cc(OC(=O)c2ccco2)nc(SCc2c(Cl)cccc2Cl)n1 [Compound 8]
IC50 [1, 22]: 52 µM | IC50 ([1]; read-out: DNA synth IC50): 52 µM | Solubility in cell growth medium [2]: just slightly insoluble at the EC50 | Selectivity Index SI (vaccinia virus WR [3]): >2 | selectivity index (vaccinia virus WR [3]): >2 | EC50 (vaccinia virus WR [3]; [23]): 100 µM | EC50 (vaccinia virus WR [3]; [24]): 100 µM | Effect of dsDNA (vaccinia virus WR [4]): No | trapped by dsDNA (vaccinia virus WR [4]): no | EC50 (vaccinia virus WR [5]; [25]): 75 µM | EC50 (vaccinia virus WR [5]; [26]): 75 µM | tox 20 h TC50 (BS-C-1 cells; 20 h): >100 µM | tox 72 h TC50 (BS-C-1 cells; 72 h): >100 µM | tox 120 h TC50 (BS-C-1 cells; 120 h): >100 µM | CC50 at 20 h (WST-1 cytotoxicity assay): > 200 µM

O=C(Nc1ccccc1C(=O)O)OCC1c2ccccc2-c2ccccc21 [Compound 9]
IC50 [1, 22]: 26 µM | IC50 ([1]; read-out: DNA synth IC50): 26 µM | Selectivity Index SI (vaccinia virus WR [3]): >1.9 | selectivity index (vaccinia virus WR [3]): >1.9 | EC50 (vaccinia virus WR [3]; [23]): 104 µM | EC50 (vaccinia virus WR [3]; [24]): 104 µM | Effect of dsDNA (vaccinia virus WR [4]): No | trapped by dsDNA (vaccinia virus WR [4]): no | EC50 (vaccinia virus WR [5]; [25]): 75 µM | EC50 (vaccinia virus WR [5]; [26]): 75 µM | tox 20 h TC50 (BS-C-1 cells; 20 h): >200 µM | tox 72 h TC50 (BS-C-1 cells; 72 h): 40 µM | tox 120 h TC50 (BS-C-1 cells; 120 h): 20 µM | CC50 (BS-C-1 cells; [27]): > 200 µM | CC50 (BS-C-1 cells; [28]): 20 µM | CC50 at 72 h (WST-1 cytotoxicity assay): 30 to 50 µM

CCS(=O)(=O)N1CCN=C1SCc1ccc(Cl)cc1Cl [Compound 10]
IC50 [1, 22]: 188 µM | IC50 ([1]; read-out: DNA synth IC50): 188 µM | Solubility in cell growth medium [2]: just slightly insoluble at the EC50 | EC50 (vaccinia virus WR [3]; [23]): 90 µM | EC50 (vaccinia virus WR [3]; [24]): 90 µM | Effect of dsDNA (vaccinia virus WR [4]): No | trapped by dsDNA (vaccinia virus WR [4]): no | EC50 (vaccinia virus WR [5]; [25]): 25 µM | EC50 (vaccinia virus WR [5]; [26]): 25 µM | tox 20 h TC50 (BS-C-1 cells; 20 h): 166 µM | CC50 (BS-C-1 cells; [27]): 166 µM | CC50 at 120 h (WST-1 cytotoxicity assay): 25 µM

N=C1S/C(=C/c2ccco2)C(=O)N1c1nccs1 [Compound 12]
IC50 [1, 22]: 32 µM | IC50 ([1]; read-out: DNA synth IC50): 32 µM | Solubility in cell growth medium [2]: just slightly insoluble at the EC50 | Selectivity Index SI (vaccinia virus WR [3]): >1.2 | selectivity index (vaccinia virus WR [3]): >1.2 | EC50 (vaccinia virus WR [3]; [23]): 80 µM | EC50 (vaccinia virus WR [3]; [24]): 80 µM | Effect of dsDNA (vaccinia virus WR [4]): No | trapped by dsDNA (vaccinia virus WR [4]): no | EC50 (vaccinia virus WR [5]; [25]): 75 µM | EC50 (vaccinia virus WR [5]; [26]): 75 µM | tox 20 h TC50 (BS-C-1 cells; 20 h): >100 µM | tox 72 h TC50 (BS-C-1 cells; 72 h): >100 µM | tox 120 h TC50 (BS-C-1 cells; 120 h): 50 µM | CC50 (BS-C-1 cells; [27]): > 100 µM | CC50 at 72 h (WST-1 cytotoxicity assay): > 50 µM

O=C(O)Cn1c2ccc(Cl)cc2c2nc3ccccc3nc21 [Compound 13]
Solubility in cell growth medium [2]: just slightly insoluble at the EC50 | EC50 (vaccinia virus WR [3]; [23]): 100 µM | EC50 (vaccinia virus WR [3]; [24]): 100 µM | Effect of dsDNA (vaccinia virus WR [4]): No | trapped by dsDNA (vaccinia virus WR [4]): no | EC50 (vaccinia virus WR [5]; [25]): 50 µM | EC50 (vaccinia virus WR [5]; [26]): 50 µM | tox 20 h TC50 (BS-C-1 cells; 20 h): >100 µM | tox 72 h TC50 (BS-C-1 cells; 72 h): 13 µM | tox 120 h TC50 (BS-C-1 cells; 120 h): 30 µM | CC50 (BS-C-1 cells; [27]): > 100 µM | CC50 (BS-C-1 cells; read-out: Cytotoxicity 72 h CC50, 72 h): 13 µM | CC50 (BS-C-1 cells; [28]): 30 µM

O=C1/C(=C/C2CCCO2)CC/C1=C\C1CCCO1 (centres unmarked) [Compound 16]
IC50 [1, 22]: 239 µM | IC50 ([1]; read-out: DNA synth IC50): 239 µM | Solubility in cell growth medium [2]: just slightly insoluble at the EC50 | Selectivity Index SI (vaccinia virus WR [3]): >1 | selectivity index (vaccinia virus WR [3]): >1 | EC50 (vaccinia virus WR [3]; [23]): 100 µM | EC50 (vaccinia virus WR [3]; [24]): 100 µM | Effect of dsDNA (vaccinia virus WR [4]): No | trapped by dsDNA (vaccinia virus WR [4]): no | EC50 (vaccinia virus WR [5]; [25]): 50 µM | EC50 (vaccinia virus WR [5]; [26]): 50 µM | tox 20 h TC50 (BS-C-1 cells; 20 h): >100 µM | tox 72 h TC50 (BS-C-1 cells; 72 h): >100 µM | tox 120 h TC50 (BS-C-1 cells; 120 h): 50 µM | CC50 (BS-C-1 cells; [27]): > 100 µM

Oc1ccc(Cl)cc1Sc1cc(Cl)ccc1O [NSC 55636, 2,2′-thiobis(4-chlorophenol)]
inhibition at 100 µM (vaccinia virus [6]): 95% | EC50 (vaccinia virus [6]; BSC-1, read-out: EC50 (concentration at which compound reduced plaques by 50%)): 5 µM | Effect on synthesis of M13 DNA [7]: blocked by increasing concentrations | Effect on E9 polymerase activity on the uniform template [8]: prevented E9 from incorporating nucleotides on the uniform template; also recorded: inhibited the catalytic activity of E9 DNA polymerase; also recorded: blocked polymerase activity | Targeted Activity (% Inhibition): Polymerase [8]: Polymerase (74%) | CC50 (in vitro): > 200 µM | Effect on DNA synthesis by the triad on the distal template [9]: also blocked the distal template | Cell Cytotoxicity (BSC-1 cells [10]): 14% | Cell Cytotoxicity (BSC-1 cells [10]; listed as 55636): 14% | Blocking the replication of vaccinia virus in cells (vaccinia virus [11]): effective in blocking the replication of vaccinia virus in cells

CN(C)C1C(O)=C(C(N)=O)C(=O)C2(O)C(O)=C3C(=O)c4c(O)cccc4C(C)(O)C3CC12.CS(=O)(=O)O (centres unmarked) [NSC 69343, 4-(dimethylamino)-3,6,10,12,12a-pentahydroxy-6-methyl-1,11-dioxo-1,4,4a,5,5a,6,11,12a-octahydrotetracene-2-carboxamide methanesulfonate, reference compound]
inhibition at 100 µM (vaccinia virus [6]): 40% | IC50 (vaccinia virus [12]): > 200 µM | CC50 [13]: > 200 µM | Cell Cytotoxicity (BSC-1 cells [10]; methanesulfonate): 17% | Blocking the replication of vaccinia virus in cells (vaccinia virus [11]): effective in blocking the replication of vaccinia virus in cells

O=C1CSC(=S)N1/N=C/c1ccc(Cl)c([N+](=O)[O-])c1 [NSC 124808]
inhibition at 100 µM (vaccinia virus [6]): 36% | Effect on synthesis of M13 DNA [7]: blocked by increasing concentrations | Effect on E9 polymerase activity on the uniform template [8]: not on the uniform template; also recorded: minimal effects | Effect on DNA synthesis by the triad on the distal template [9]: prevented DNA synthesis by the triad on the distal template; also recorded: blocked incorporation on the distal template | Targeted Activity (% Inhibition): Processivity [9]: Processivity (62%) | Cell Cytotoxicity (BSC-1 cells [10]): 21%

COc1cc(O)c2c(O)c3c(c4c2c1[C@]1(C4)C(C)=CCCC1(C)C)[C@H](O)[C@@]1(O)CC(O)=C(C(N)=O)C(=O)[C@@]1(O)C3=O [Viridicatumtoxin, viridicatumtoxin]
IC50 (vaccinia virus [12]): 1.6 µM | Late F9 mRNA expression [14]: only a marginal increase in F9 mRNA expression by 5 h.p.i. | Early E3 mRNA production [15]: maximum at 3 h.p.i. and dropped back to low levels by 5 h.p.i. | % cell viability on plaque IC50, MTT (BSC-1 cells [16]): 83 ± 16% | % cell viability on plaque IC50, MTT (BSC-1 cells [16]; listed as viridicatumtoxin): about 85% | IC50 [17]: 63 µM | CC50 [13]: > 200 µM | Cytotoxicity at highest exposure (BSC-1 cells [18]): not cytotoxic | Early E3 protein level [19]: no significant difference in the levels of E3 | Late L1 protein level (vaccinia late L1 protein): significantly decreased | Blocking the replication of vaccinia virus in cells (vaccinia virus [11]): particularly effective | % cell viability on plaque IC50, Cell count (BSC-1 cells [20]): 92 ± 23% | % cell viability on plaque IC50, Cell count (BSC-1 cells [20]; listed as viridicatumtoxin): About 90% | Concentration at which the cells began to detach (vaccinia virus [21]): ≥ 100 µM
